From the kinase profiling compilation of Christmann-Franck et al. (2016)

Key:
Assay in all cases: KINOMEscan competition binding
Details in all cases: compound 10.0 µM
RIPK1 (human) = RIPK1 (human) (UniProt Q13546)
MAPK3 (human) = MAPK3 (human) (UniProt P27361)
BLK (human) = BLK (human) (UniProt P51451)
RET (human) = RET (human) (UniProt P07949)
EPHA3 (human) = EPHA3 (human) (UniProt P29320)
PIK3C2B (human) = PIK3C2B (human) (UniProt O00750)
CAMK4 (human) = CAMK4 (human) (UniProt Q16566)
MST1R (human) = MST1R (human) (UniProt Q04912)
ADCK4 (human) = ADCK4 (human) (UniProt Q96D53)
PRKACB (human) = PRKACB (human) (UniProt P22694)
CDKL2 (human) = CDKL2 (human) (UniProt Q92772)
NEK5 (human) = NEK5 (human) (UniProt Q6P3R8)
SRPK1 (human) = SRPK1 (human) (UniProt Q96SB4)
PAK3 (human) = PAK3 (human) (UniProt O75914)
FLT1 (human) = FLT1 (human) (UniProt P17948)
Sequence of FLT1 (human) (P17948 whole entry, looked up): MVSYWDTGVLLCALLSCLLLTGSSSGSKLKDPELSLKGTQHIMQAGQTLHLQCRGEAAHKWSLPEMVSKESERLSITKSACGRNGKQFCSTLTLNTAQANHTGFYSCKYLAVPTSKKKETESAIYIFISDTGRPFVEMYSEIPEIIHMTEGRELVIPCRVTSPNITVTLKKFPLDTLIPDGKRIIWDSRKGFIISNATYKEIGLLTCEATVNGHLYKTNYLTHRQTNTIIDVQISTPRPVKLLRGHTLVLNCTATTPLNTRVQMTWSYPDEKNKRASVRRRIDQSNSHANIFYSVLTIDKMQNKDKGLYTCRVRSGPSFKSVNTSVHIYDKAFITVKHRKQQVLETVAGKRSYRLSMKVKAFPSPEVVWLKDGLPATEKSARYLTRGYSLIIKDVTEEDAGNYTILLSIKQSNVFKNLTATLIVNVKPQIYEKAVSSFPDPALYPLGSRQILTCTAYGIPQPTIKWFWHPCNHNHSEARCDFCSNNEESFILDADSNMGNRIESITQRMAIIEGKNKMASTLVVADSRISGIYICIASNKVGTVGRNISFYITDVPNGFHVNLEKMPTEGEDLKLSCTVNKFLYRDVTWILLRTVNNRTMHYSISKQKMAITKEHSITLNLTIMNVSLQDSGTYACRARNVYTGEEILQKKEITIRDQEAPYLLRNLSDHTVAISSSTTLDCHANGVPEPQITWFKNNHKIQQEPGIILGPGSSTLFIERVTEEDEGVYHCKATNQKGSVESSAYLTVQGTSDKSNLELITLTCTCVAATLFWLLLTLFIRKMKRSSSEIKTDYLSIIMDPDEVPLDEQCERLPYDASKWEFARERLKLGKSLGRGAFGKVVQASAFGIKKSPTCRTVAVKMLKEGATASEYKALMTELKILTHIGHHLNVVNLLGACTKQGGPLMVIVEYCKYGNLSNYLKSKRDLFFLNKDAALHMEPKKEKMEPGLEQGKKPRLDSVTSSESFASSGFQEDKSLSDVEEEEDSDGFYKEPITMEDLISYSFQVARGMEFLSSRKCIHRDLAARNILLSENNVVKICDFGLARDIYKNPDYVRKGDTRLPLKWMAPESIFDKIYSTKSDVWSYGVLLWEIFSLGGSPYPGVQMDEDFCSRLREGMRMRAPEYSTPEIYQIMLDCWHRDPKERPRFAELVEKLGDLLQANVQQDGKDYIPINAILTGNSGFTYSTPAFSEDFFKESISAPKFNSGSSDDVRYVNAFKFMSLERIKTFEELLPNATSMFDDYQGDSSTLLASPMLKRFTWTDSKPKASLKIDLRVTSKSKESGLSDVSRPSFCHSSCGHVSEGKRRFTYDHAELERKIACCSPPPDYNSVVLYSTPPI

EPHA7 (human) = EPHA7 (human) (UniProt Q15375)
PTK2 (human) = PTK2 (human) (UniProt Q05397)
[1] = tested on: EGFR (human), P00533 [752-759 del]
LIMK2 (human) = LIMK2 (human) (UniProt P53671)
CAMK2G (human) = CAMK2G (human) (UniProt Q13555)
PAK6 (human) = PAK6 (human) (UniProt Q9NQU5)
BTK (human) = BTK (human) (UniProt Q06187)
IGF1R (human) = IGF1R (human) (UniProt P08069)
ITK (human) = ITK (human) (UniProt Q08881)
MET (human) = MET (human) (UniProt P08581)
CAMK2D (human) = CAMK2D (human) (UniProt Q13557)
CDK9 (human) = CDK9 (human) (UniProt P50750)
PRKAA1 (human) = PRKAA1 (human) (UniProt Q13131)
CDC42BPB (human) = CDC42BPB (human) (UniProt Q9Y5S2)
Sequence of CDC42BPB (human) (Q9Y5S2 whole entry, looked up): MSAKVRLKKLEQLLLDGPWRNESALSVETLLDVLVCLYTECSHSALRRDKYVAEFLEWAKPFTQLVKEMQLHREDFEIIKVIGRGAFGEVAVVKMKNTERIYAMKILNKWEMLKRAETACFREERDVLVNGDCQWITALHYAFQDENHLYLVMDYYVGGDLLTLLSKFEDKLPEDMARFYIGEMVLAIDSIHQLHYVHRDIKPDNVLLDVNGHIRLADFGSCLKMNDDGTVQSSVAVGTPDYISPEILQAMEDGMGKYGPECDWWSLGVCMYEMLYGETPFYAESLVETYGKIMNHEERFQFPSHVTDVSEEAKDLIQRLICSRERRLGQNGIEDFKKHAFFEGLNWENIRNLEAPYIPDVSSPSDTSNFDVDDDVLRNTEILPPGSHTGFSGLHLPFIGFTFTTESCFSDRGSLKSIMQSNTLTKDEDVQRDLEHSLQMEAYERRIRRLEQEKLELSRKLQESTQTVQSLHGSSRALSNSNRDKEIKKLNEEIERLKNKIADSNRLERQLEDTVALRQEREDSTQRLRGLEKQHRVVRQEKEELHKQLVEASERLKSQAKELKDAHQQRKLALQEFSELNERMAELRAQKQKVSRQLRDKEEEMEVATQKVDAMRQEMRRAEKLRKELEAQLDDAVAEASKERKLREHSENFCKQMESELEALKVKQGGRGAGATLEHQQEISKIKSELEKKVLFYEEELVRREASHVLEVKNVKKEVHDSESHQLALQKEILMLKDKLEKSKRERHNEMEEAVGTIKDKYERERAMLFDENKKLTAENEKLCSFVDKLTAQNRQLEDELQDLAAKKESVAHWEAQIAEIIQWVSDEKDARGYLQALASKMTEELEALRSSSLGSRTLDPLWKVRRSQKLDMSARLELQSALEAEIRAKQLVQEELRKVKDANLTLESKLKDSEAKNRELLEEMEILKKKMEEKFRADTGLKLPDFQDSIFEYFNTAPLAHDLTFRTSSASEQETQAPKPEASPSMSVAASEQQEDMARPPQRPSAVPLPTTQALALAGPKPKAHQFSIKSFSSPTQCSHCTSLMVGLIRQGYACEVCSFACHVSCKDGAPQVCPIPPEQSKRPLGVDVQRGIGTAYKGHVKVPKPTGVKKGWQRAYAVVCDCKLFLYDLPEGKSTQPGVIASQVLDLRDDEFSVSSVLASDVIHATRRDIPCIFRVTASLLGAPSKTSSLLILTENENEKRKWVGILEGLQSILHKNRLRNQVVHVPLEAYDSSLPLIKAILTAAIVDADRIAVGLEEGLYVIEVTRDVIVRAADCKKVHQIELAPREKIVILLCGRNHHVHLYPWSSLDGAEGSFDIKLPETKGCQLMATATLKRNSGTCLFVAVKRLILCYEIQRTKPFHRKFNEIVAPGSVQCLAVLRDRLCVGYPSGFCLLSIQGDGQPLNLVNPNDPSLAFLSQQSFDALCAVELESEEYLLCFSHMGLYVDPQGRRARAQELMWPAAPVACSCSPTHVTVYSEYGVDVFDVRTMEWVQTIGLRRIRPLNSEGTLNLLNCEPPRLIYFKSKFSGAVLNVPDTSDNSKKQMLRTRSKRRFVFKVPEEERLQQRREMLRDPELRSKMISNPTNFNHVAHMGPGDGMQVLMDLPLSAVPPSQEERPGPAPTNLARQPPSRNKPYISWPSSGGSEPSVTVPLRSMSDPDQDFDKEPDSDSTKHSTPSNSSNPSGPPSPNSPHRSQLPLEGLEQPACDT

MAPKAPK5 (human) = MAPKAPK5 (human) (UniProt Q8IW41)
EPHB2 (human) = EPHB2 (human) (UniProt P29323)
WEE1 (human) = WEE1 (human) (UniProt P30291)
PIK3CB (human) = PIK3CB (human) (UniProt P42338)
PRKACA (human) = PRKACA (human) (UniProt P17612)
RPS6KA6 KD1 (human) = RPS6KA6 KD1 (human) (UniProt Q9UK32)
NTRK2 (human) = NTRK2 (human) (UniProt Q16620)
FGR (human) = FGR (human) (UniProt P09769)
ROS1 (human) = ROS1 (human) (UniProt P08922)
CSNK1G2 (human) = CSNK1G2 (human) (UniProt P78368)
Sequence of CSNK1G2 (human) (P78368 whole entry, looked up): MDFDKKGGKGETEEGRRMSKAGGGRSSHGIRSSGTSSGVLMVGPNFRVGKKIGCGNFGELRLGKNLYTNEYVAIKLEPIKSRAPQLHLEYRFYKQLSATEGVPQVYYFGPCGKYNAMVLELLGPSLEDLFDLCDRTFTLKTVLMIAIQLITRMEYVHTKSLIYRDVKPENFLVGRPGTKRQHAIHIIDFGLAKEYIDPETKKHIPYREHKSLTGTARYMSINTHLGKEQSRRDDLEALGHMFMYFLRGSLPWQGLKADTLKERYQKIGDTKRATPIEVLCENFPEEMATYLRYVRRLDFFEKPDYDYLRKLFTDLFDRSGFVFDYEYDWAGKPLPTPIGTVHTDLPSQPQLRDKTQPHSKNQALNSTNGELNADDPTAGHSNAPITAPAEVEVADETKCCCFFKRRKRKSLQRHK

PRKCD (human) = PRKCD (human) (UniProt Q05655)
MAP3K11 (human) = MAP3K11 (human) (UniProt Q16584)
YES1 (human) = YES1 (human) (UniProt P07947)

Sequence of PIK3C2B (human) (O00750 whole entry, looked up): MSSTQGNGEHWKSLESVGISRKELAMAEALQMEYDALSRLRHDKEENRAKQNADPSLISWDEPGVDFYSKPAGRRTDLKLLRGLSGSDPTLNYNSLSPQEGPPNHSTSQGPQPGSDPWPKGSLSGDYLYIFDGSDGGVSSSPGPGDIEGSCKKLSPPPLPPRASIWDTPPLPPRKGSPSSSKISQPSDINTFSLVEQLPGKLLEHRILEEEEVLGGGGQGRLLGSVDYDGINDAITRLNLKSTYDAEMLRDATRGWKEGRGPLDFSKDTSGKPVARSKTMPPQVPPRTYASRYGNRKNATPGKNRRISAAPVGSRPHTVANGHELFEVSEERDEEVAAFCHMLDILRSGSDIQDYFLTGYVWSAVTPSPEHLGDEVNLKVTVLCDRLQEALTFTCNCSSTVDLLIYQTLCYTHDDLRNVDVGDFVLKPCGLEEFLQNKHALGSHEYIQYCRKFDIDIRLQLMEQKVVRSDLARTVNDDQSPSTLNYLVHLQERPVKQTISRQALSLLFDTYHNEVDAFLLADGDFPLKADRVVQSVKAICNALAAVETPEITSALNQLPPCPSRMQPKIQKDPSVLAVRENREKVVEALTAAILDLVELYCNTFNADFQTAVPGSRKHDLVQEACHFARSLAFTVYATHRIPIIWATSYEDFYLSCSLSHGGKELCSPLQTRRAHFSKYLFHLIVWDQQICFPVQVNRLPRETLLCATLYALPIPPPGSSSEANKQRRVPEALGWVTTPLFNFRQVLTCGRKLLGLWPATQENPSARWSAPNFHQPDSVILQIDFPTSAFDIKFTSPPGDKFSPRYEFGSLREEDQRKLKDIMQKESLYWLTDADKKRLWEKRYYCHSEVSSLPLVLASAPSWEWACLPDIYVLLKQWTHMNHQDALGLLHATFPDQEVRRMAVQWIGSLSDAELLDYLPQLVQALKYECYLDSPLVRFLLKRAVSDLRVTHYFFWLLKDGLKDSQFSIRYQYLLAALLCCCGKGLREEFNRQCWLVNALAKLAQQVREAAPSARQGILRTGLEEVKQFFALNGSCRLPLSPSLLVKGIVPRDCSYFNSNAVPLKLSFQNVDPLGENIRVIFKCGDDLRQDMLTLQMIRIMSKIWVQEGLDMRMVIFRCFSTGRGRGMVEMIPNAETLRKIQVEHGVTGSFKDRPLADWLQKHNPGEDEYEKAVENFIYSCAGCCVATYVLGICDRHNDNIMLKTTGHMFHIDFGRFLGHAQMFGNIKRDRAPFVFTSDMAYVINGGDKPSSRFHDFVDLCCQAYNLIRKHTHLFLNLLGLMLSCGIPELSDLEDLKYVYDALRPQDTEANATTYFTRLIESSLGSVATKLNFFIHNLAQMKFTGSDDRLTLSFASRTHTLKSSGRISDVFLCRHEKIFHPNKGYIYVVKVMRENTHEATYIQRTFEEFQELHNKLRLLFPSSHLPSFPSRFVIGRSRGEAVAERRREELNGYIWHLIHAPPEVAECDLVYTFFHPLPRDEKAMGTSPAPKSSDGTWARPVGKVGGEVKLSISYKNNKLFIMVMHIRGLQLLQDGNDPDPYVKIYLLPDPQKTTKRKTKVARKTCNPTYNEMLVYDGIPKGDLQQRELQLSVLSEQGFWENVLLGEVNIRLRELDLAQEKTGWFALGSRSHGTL

SMILES: O=C1NC(=O)/C(=C/c2c[nH]c(=O)c(-c3ccc(N4CCNCC4)nc3)c2)S1
- kinase still bound, per cent of control (RIPK1 (human)): 82%
- kinase still bound, per cent of control (MAPK3 (human)): 94%
- kinase still bound, per cent of control (BLK (human)): 100%
- kinase still bound, per cent of control (RET (human)): 70%
- kinase still bound, per cent of control (EPHA3 (human)): 67%
- kinase still bound, per cent of control (PIK3C2B (human)): 90%
- kinase still bound, per cent of control (CAMK4 (human)): 100%
- kinase still bound, per cent of control (MST1R (human)): 93%
- kinase still bound, per cent of control (ADCK4 (human)): 80%
- kinase still bound, per cent of control (PRKACB (human)): 100%
- kinase still bound, per cent of control (CDKL2 (human)): 67%
- kinase still bound, per cent of control (NEK5 (human)): 100%
- kinase still bound, per cent of control (SRPK1 (human)): 25%
- kinase still bound, per cent of control (PAK3 (human)): 86%
- kinase still bound, per cent of control (FLT1 (human)): 93%
- kinase still bound, per cent of control (EPHA7 (human)): 97%
- kinase still bound, per cent of control (PTK2 (human)): 79%
- kinase still bound, per cent of control [1]: 95%
- kinase still bound, per cent of control (LIMK2 (human)): 82%
- kinase still bound, per cent of control (CAMK2G (human)): 65%
- kinase still bound, per cent of control (PAK6 (human)): 17%
- kinase still bound, per cent of control (BTK (human)): 51%
- kinase still bound, per cent of control (IGF1R (human)): 100%
- kinase still bound, per cent of control (ITK (human)): 89%
- kinase still bound, per cent of control (MET (human)): 97%
- kinase still bound, per cent of control (CAMK2D (human)): 59%
- kinase still bound, per cent of control (CDK9 (human)): 100%
- kinase still bound, per cent of control (PRKAA1 (human)): 59%
- kinase still bound, per cent of control (CDC42BPB (human)): 100%
- kinase still bound, per cent of control (MAPKAPK5 (human)): 84%
- kinase still bound, per cent of control (EPHB2 (human)): 71%
- kinase still bound, per cent of control (WEE1 (human)): 91%
- kinase still bound, per cent of control (PIK3CB (human)): 4.8%
- kinase still bound, per cent of control (PRKACA (human)): 100%
- kinase still bound, per cent of control (RPS6KA6 KD1 (human)): 34%
- kinase still bound, per cent of control (NTRK2 (human)): 86%
- kinase still bound, per cent of control (FGR (human)): 84%
- kinase still bound, per cent of control (ROS1 (human)): 100%
- kinase still bound, per cent of control (CSNK1G2 (human)): 3.6%
- kinase still bound, per cent of control (PRKCD (human)): 32%
- kinase still bound, per cent of control (MAP3K11 (human)): 100%
- kinase still bound, per cent of control (YES1 (human)): 97%

SMILES: N=C1NC(=O)/C(=C/c2ccc(-c3csc4ccccc34)o2)S1
- kinase still bound, per cent of control (CAMK4 (human)): 25%
- kinase still bound, per cent of control (CDC42BPB (human)): 32%

SMILES: COc1cc(N2CCC(O)CC2)ccc1Nc1ncc2c(n1)N1CCc3cccc(c31)C(=O)N2C
- kinase still bound, per cent of control (RIPK1 (human)): 100%
- kinase still bound, per cent of control (MAPK3 (human)): 99%
- kinase still bound, per cent of control (BLK (human)): 100%
- kinase still bound, per cent of control (RET (human)): 100%
- kinase still bound, per cent of control (EPHA3 (human)): 72%
- kinase still bound, per cent of control (PIK3C2B (human)): 100%
- kinase still bound, per cent of control (CAMK4 (human)): 100%
- kinase still bound, per cent of control (MST1R (human)): 82%
- kinase still bound, per cent of control (ADCK4 (human)): 86%
- kinase still bound, per cent of control (PRKACB (human)): 100%
- kinase still bound, per cent of control (CDKL2 (human)): 100%
- kinase still bound, per cent of control (NEK5 (human)): 81%
- kinase still bound, per cent of control (SRPK1 (human)): 100%
- kinase still bound, per cent of control (PAK3 (human)): 58%
- kinase still bound, per cent of control (FLT1 (human)): 100%
- kinase still bound, per cent of control (EPHA7 (human)): 92%
- kinase still bound, per cent of control (PTK2 (human)): 4.6%
- kinase still bound, per cent of control [1]: 81%
- kinase still bound, per cent of control (LIMK2 (human)): 100%
- kinase still bound, per cent of control (CAMK2G (human)): 80%
- kinase still bound, per cent of control (PAK6 (human)): 92%
- kinase still bound, per cent of control (BTK (human)): 78%
- kinase still bound, per cent of control (IGF1R (human)): 100%
- kinase still bound, per cent of control (ITK (human)): 90%
- kinase still bound, per cent of control (MET (human)): 90%
- kinase still bound, per cent of control (CAMK2D (human)): 65%
- kinase still bound, per cent of control (CDK9 (human)): 100%
- kinase still bound, per cent of control (PRKAA1 (human)): 84%
- kinase still bound, per cent of control (CDC42BPB (human)): 94%
- kinase still bound, per cent of control (MAPKAPK5 (human)): 95%
- kinase still bound, per cent of control (EPHB2 (human)): 94%
- kinase still bound, per cent of control (WEE1 (human)): 100%
- kinase still bound, per cent of control (PIK3CB (human)): 92%
- kinase still bound, per cent of control (PRKACA (human)): 100%
- kinase still bound, per cent of control (RPS6KA6 KD1 (human)): 87%
- kinase still bound, per cent of control (NTRK2 (human)): 100%
- kinase still bound, per cent of control (FGR (human)): 93%
- kinase still bound, per cent of control (ROS1 (human)): 29%
- kinase still bound, per cent of control (CSNK1G2 (human)): 100%
- kinase still bound, per cent of control (PRKCD (human)): 100%
- kinase still bound, per cent of control (MAP3K11 (human)): 100%
- kinase still bound, per cent of control (YES1 (human)): 99%

SMILES: N=C1NC(=O)/C(=C/c2ccc(-c3cncc4ccccc34)o2)S1
- kinase still bound, per cent of control (EPHA3 (human)): 13%
- kinase still bound, per cent of control (SRPK1 (human)): 15%
- kinase still bound, per cent of control (CAMK2G (human)): 11%
- kinase still bound, per cent of control (PAK6 (human)): 14%
- kinase still bound, per cent of control (BTK (human)): 31%
- kinase still bound, per cent of control (CAMK2D (human)): 7.6%
- kinase still bound, per cent of control (PRKAA1 (human)): 24%
- kinase still bound, per cent of control (MAPKAPK5 (human)): 12%

SMILES: CS(=O)(=O)Nc1ccc(-c2cncc(/C=C3\SC(=N)NC3=O)c2)cc1
- kinase still bound, per cent of control (SRPK1 (human)): 11%
- kinase still bound, per cent of control (CSNK1G2 (human)): 0.75%

SMILES: O=C1NC(=S)S/C1=C\c1ccc(-c2cncc3ccccc23)o1
- kinase still bound, per cent of control (EPHA3 (human)): 17%
- kinase still bound, per cent of control (FLT1 (human)): 28%
- kinase still bound, per cent of control (PTK2 (human)): 28%
- kinase still bound, per cent of control (CAMK2G (human)): 32%
- kinase still bound, per cent of control (PAK6 (human)): 29%
- kinase still bound, per cent of control (CAMK2D (human)): 32%
- kinase still bound, per cent of control (CDC42BPB (human)): 30%
- kinase still bound, per cent of control (ROS1 (human)): 34%

SMILES: CN1C(=O)[C@H]2CCC[C@H]2N(C2CCCC2)c2nc(Nc3ccc(C(N)=O)cc3)ncc21
- kinase still bound, per cent of control (NEK5 (human)): 9%
- kinase still bound, per cent of control (MET (human)): 4.5%
- kinase still bound, per cent of control (PRKAA1 (human)): 31%
- kinase still bound, per cent of control (RPS6KA6 KD1 (human)): 30%

SMILES: N=C1NC(=O)/C(=C/c2ccc(-c3ccc(C(N)=O)cc3O)o2)S1
- kinase still bound, per cent of control (PIK3C2B (human)): 28%
- kinase still bound, per cent of control (CAMK2D (human)): 34%

SMILES: CS(=O)(=O)Nc1ccc(-c2ncc(/C=C3\SC(=N)NC3=O)s2)cc1
- kinase still bound, per cent of control (RET (human)): 20%
- kinase still bound, per cent of control (FGR (human)): 26%
- kinase still bound, per cent of control (CSNK1G2 (human)): 14%

SMILES: N=C1NC(=O)/C(=C/c2ccc(-c3ccccc3O)o2)S1
- kinase still bound, per cent of control (PIK3C2B (human)): 31%

SMILES: N=C1NC(=O)/C(=C/c2ccc(-c3ccc(F)cc3O)o2)S1
- kinase still bound, per cent of control (SRPK1 (human)): 25%
- kinase still bound, per cent of control (PRKAA1 (human)): 32%

SMILES: Nc1cccc(-c2cc(/C=C3\SC(=O)NC3=O)c[nH]c2=O)c1
- kinase still bound, per cent of control [1]: 14%
- kinase still bound, per cent of control (CDK9 (human)): 25%
- kinase still bound, per cent of control (CSNK1G2 (human)): 19%

SMILES: CS(=O)(=O)Nc1ccc(-c2cc(/C=C3\SC(=N)NC3=O)c[nH]c2=O)cc1
- kinase still bound, per cent of control (PRKCD (human)): 34%
